Measured values as given in US11071731B2, “Allosteric modulators of the mu opioid receptor” (Chiromics, LLC, priority 2017, dated 2021).

Assays:
mu opioid receptor (MOR) [1] = molecular target: T1, mu opioid receptor (MOR) (Homo sapiens, UniProt P35372); assay: PathHunter β-arrestin recruitment assay, PAM mode with EC20 endomorphin-1; format: cell-based
How it was run: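 Enzyme fragment complementation read-out: β-gal ED fragment fused to receptor, EA fused to β-arrestin, recruitment restoring β-gal activity detected by chemiluminescence. EC50 and percent maximal response derived for each compound.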

mu opioid receptor (MOR) [2] = molecular target: T1, mu opioid receptor (MOR); assay: Hit Hunter cAMP signaling assay (adenylyl cyclase inhibition), PAM mode with EC20 endomorphin-1; format: cell-based
[3] = maximal response for β-arrestin recruitment
[4] = β-arrestin recruitment, read-out: β-arr. EC50
[5] = cAMP EC50, adenylyl cyclase inhibition
[6] = maximal response for adenylyl cyclase inhibition
[7] = maximal response, β-arrestin recruitment
[8] = maximal response, adenylyl cyclase inhibition
[9] = adenylyl cyclase inhibition, read-out: cAMP EC50
[10] = β-arrestin recruitment, activity switching by MOR PAMs
[11] = β-arrestin recruitment, activity switching by MOR PAMs, read-out: β-arrestin EC50
[12] = adenylyl cyclase inhibition, activity switching by MOR PAMs
[13] = adenylyl cyclase inhibition, activity switching by MOR PAMs, read-out: cAMP EC50

T1 sequence (P35372 whole entry, the tested form may be a part): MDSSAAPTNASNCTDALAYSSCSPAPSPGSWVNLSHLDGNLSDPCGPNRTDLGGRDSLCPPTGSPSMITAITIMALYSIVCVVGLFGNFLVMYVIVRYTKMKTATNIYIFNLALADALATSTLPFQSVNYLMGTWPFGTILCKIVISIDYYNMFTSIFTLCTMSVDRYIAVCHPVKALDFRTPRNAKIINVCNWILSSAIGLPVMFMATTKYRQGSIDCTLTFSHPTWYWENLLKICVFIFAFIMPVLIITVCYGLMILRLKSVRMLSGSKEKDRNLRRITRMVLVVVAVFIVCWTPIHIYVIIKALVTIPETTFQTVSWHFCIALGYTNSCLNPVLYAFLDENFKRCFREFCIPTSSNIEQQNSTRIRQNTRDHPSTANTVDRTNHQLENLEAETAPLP

Structure (SMILES) | β-arr Max. Resp. (mu opioid receptor (MOR) [1]; [3]) | EC50 (mu opioid receptor (MOR) [1]; [4]) [nM] | EC50 (mu opioid receptor (MOR) [2]; [5]) [nM] | cAMP Max. Resp. (mu opioid receptor (MOR) [2]; [6]) | EC50 (mu opioid receptor (MOR) [2]; [9]) [nM] | also measured
[2H]C1(c2cccc(C(F)(F)F)c2)C(F)CCCN1Cc1cccc(Br)c1 (stereo not drawn) [compound 206] | F (F represents a maximal response of > 60%) | 700 to 2100 | 700 to 2100 | E (E represents a maximal response of 40-60%) |  | 
Fc1cnc(Cl)nc1N1CCCCC1c1ccc2nccn2c1 (stereo not drawn) [compound 421] |  | < 700 | < 700 |  |  | β-arr Max. Resp. (mu opioid receptor (MOR) [1]; [7]): D (D represents a maximal response of < 40%); cAMP Max. Resp. (mu opioid receptor (MOR) [2]; [8]): D (D represents a maximal response of < 40%)
COc1cc(C2CCCCN2c2nc(Cl)ncc2F)ccn1 (stereo not drawn) [compound 275] | D (D represents a maximal response of < 40%) | > 2100 | > 2100 | D (D represents a maximal response of < 40%) |  | 
Cc1coc(C2CCCCN2c2nc(Cl)ncc2F)n1 (stereo not drawn) [compound 366] | D (D represents a maximal response of < 40%) | < 700 | < 700 | D (D represents a maximal response of < 40%) |  | 
CC(=O)N1CCN(c2nc(Cl)ncc2F)C(c2cc(F)cc(C(F)(F)F)c2)C1 (racemic) [Compound 308] | E (E represents a maximal response of 40-60%) | > 2100 |  | F (F represents a maximal response of > 60%) | > 2100 | 
COc1ccc(C2CCCCN2Cc2cccc(Cl)c2F)cc1Br (stereo not drawn) [compound 245] | D (D represents a maximal response of < 40%) | > 2100 | > 2100 | D (D represents a maximal response of < 40%) |  | 
Cc1noc(C2CCCCN2c2nc(Cl)ncc2F)n1 (stereo not drawn) [compound 358] | D (D represents a maximal response of < 40%) | < 700 | < 700 | D (D represents a maximal response of < 40%) |  | 
Fc1c(N2CCCCC2c2cccc(C(F)(F)F)c2)ccnc1Cl (stereo not drawn) [compound 402] | D (D represents a maximal response of < 40%) | < 700 | < 700 | D (D represents a maximal response of < 40%) |  | 
O=S(=O)(Cc1ccccc1)N1C2CCC(C2)C1c1ccc(F)c(Br)c1 (stereo not drawn) [Compound 182] | E (E represents a maximal response of 40-60%) | > 2100 |  | D (D represents a maximal response of < 40%) | > 2100 | 
Fc1cnc(Cl)nc1N1CCCCC1c1cncc(C(F)(F)F)c1 (stereo not drawn) [compound 376] | D (D represents a maximal response of < 40%) | < 700 | < 700 | D (D represents a maximal response of < 40%) |  | 
CC1CCN(S(=O)(=O)c2ccc(Cl)cc2)C1c1cccc(Cl)c1 (stereo not drawn) [Compound 107] | F (F represents a maximal response of > 60%) | > 2100 |  | D (D represents a maximal response of < 40%) | > 2100 | 
CC1CCN(S(=O)(=O)c2ccc(Cl)cc2)C1c1ccc(F)c(F)c1 (mixture of isomers) [Compound 97] | F (F represents a maximal response of > 60%) | 700 to 2100 |  | D (D represents a maximal response of < 40%) | 700 to 2100 | 
[2H]C1(c2ccc(F)c(Br)c2)C(F)CCCN1c1nc(Cl)ncc1F (stereo not drawn) [compound 214] | F (F represents a maximal response of > 60%) |  |  | E (E represents a maximal response of 40-60%) |  | 
O[C@H]1CC[C@H](c2cc(F)cc(C(F)(F)F)c2)N(c2nc(Cl)ncc2F)C1 (relative stereo) [compound 310] | F (F represents a maximal response of > 60%) | > 2100 |  | F (F represents a maximal response of > 60%) | 700 to 2100 | 
O=S(=O)(c1ccc(Cl)cc1)N1CCCCC1c1cncc(C(F)(F)F)n1 (stereo not drawn) [compound 63] | F (F represents a maximal response of > 60%) | > 2100 |  | E (E represents a maximal response of 40-60%) | > 2100 | β-arrestin Max Response (mu opioid receptor (MOR) [1]; [10]): F (F represents a maximal response of >60%); EC50 (mu opioid receptor (MOR) [1]; [11]): > 2100 nM; cAMP Max Resp. (mu opioid receptor (MOR) [2]; [12]): E (E represents a maximal response of 40-60%); EC50 (mu opioid receptor (MOR) [2]; [13]): > 2100 nM
Fc1cnc(Cl)nc1N1CCCCC1c1cnc2ccccn12 (stereo not drawn) [compound 336] | D (D represents a maximal response of < 40%) | < 700 | < 700 | D (D represents a maximal response of < 40%) |  | 
Cc1ncc(F)c(N2CCCCC2c2cccc(F)n2)n1 (stereo not drawn) [compound 270] | D (D represents a maximal response of < 40%) | > 2100 | > 2100 | D (D represents a maximal response of < 40%) |  | 
O=S(=O)(c1ccc(Cl)cc1)N1CCCCC1c1ccc(F)c(Cl)c1 (racemic) [compound 52] | F (F represents a maximal response of > 60%) | < 700 |  | F (F represents a maximal response of > 60%) | < 700 | 

Structure (SMILES) | β-arr Max. Resp. (mu opioid receptor (MOR) [1]; [3]) | EC50 (mu opioid receptor (MOR) [1]; [4]) [nM] | EC50 (mu opioid receptor (MOR) [2]; [5]) [nM] | cAMP Max. Resp. (mu opioid receptor (MOR) [2]; [6]) | EC50 (mu opioid receptor (MOR) [2]; [9]) [nM] | also measured
COc1ncc(F)c(N2CCCCC2c2cccc(C(F)(F)F)c2)n1 (stereo not drawn) [compound 271] | F (F represents a maximal response of > 60%) | > 2100 | 700 to 2100 | E (E represents a maximal response of 40-60%) |  | 
Cc1cccc(C2CCCCN2c2nc(Cl)ncc2F)n1 (stereo not drawn) [compound 414] | D (D represents a maximal response of < 40%) | < 700 | < 700 | D (D represents a maximal response of < 40%) |  | 
Fc1cnc(Cl)nc1N1CCCCC1c1ccc2c(c1)CCO2 (stereo not drawn) [compound 371] | D (D represents a maximal response of < 40%) | < 700 | < 700 | D (D represents a maximal response of < 40%) |  | 
Cc1ncc(Cl)c(C2CCCCN2c2nc(Cl)ncc2F)n1 (stereo not drawn) [compound 392] | D (D represents a maximal response of < 40%) | < 700 | < 700 | D (D represents a maximal response of < 40%) |  | 
COc1ccc(C2CCCCN2c2ccc(Br)cn2)cc1Br (stereo not drawn) [compound 231] | E (E represents a maximal response of 40-60%) | > 2100 | > 2100 | E (E represents a maximal response of 40-60%) |  | 
Fc1ccc(C2C3CCC(C3)N2Cc2cc(Cl)ccc2F)cc1Cl (stereo not drawn) [compound 217] | F (F represents a maximal response of > 60%) |  |  | D (D represents a maximal response of < 40%) |  | EC50 (mu opioid receptor (MOR) [1]; β-arr. EC50, β-arrestin recruitment): 700 to 2100 nM; EC50 (mu opioid receptor (MOR) [2]): > 2100 nM
Fc1cnc(Cl)nc1N1CCCCC1c1cncnc1 (stereo not drawn) [compound 378] | D (D represents a maximal response of < 40%) | < 700 | < 700 | D (D represents a maximal response of < 40%) |  | 
O=S(=O)(c1ccc(Cl)cc1)N1C2CCC(C2)C1c1ccc(F)c(Br)c1 (stereo not drawn) [Compound 179] | F (F represents a maximal response of > 60%) | 700 to 2100 |  | D (D represents a maximal response of < 40%) | < 700 | 
FC(F)(F)c1ccc(N2CCCCC2c2cccc(C(F)(F)F)n2)cc1 (stereo not drawn) [compound 452] |  | > 2100 | > 2100 |  |  | β-arr Max. Resp. (mu opioid receptor (MOR) [1]; [7]): E (E represents a maximal response of 40-60%); cAMP Max. Resp. (mu opioid receptor (MOR) [2]; [8]): D (D represents a maximal response of < 40%)
O=S(=O)(c1ccc(Cl)cc1)N1CCCCC1c1ccc(F)c(C(F)(F)F)c1 (racemic) [compound 55] | F (F represents a maximal response of > 60%) | > 2100 |  | E (E represents a maximal response of 40-60%) | 700 to 2100 | β-arrestin Max Response (mu opioid receptor (MOR) [1]; [10]): F (F represents a maximal response of >60%); EC50 (mu opioid receptor (MOR) [1]; [11]): > 2100 nM; cAMP Max Resp. (mu opioid receptor (MOR) [2]; [12]): D (D represents a maximal response of < 40%); EC50 (mu opioid receptor (MOR) [2]; [13]): > 2100 nM
FC(F)(F)c1cccc(C2CCCCN2Cc2cccc(Br)c2)n1 (stereo not drawn) [compound 173] | F (F represents a maximal response of > 60%) | < 700 | < 700 | F (F represents a maximal response of > 60%) |  | 
Fc1ccc(C2CCCCN2c2ccc(C(F)(F)F)cc2)cc1Cl (stereo not drawn) [compound 453] |  | > 2100 | > 2100 |  |  | β-arr Max. Resp. (mu opioid receptor (MOR) [1]; [7]): D (D represents a maximal response of < 40%); cAMP Max. Resp. (mu opioid receptor (MOR) [2]; [8]): D (D represents a maximal response of < 40%)
O=S(=O)(c1cccc(Cl)c1)N1CCCC(F)C1c1ccc(F)c(Br)c1 (stereo not drawn) [Compound 32] |  | > 2100 |  |  | > 2100 | 
COc1ccc(C2CCCCN2S(=O)(=O)C2CC2)cc1Br (stereo not drawn) [compound 15] | E (E represents a maximal response of 40-60%) | > 2100 | > 2100 | E (E represents a maximal response of 40-60%) |  | 
Fc1cnc(Cl)nc1N1CCCCC1c1cccnc1 (stereo not drawn) [compound 373] | D (D represents a maximal response of < 40%) | < 700 | < 700 | D (D represents a maximal response of < 40%) |  | 
Fc1c(C2CCCCN2c2ccnc(Cl)n2)cccc1C(F)(F)F (stereo not drawn) [compound 365] | D (D represents a maximal response of < 40%) | < 700 | < 700 | D (D represents a maximal response of < 40%) |  | 
O=S(=O)(Cc1ccc(Cl)cc1)N1CCCCC1c1cccc(C(F)(F)F)c1 (stereo not drawn) [Compound 22] | F (F represents a maximal response of > 60%) | > 2100 |  | D (D represents a maximal response of < 40%) | > 2100 | 
